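Grown in 96-well plates, cells were treated for 48 hours with each compound at five concentrations. Insufficient inhibition: endpoint recorded as highest concentration tested. GI50 = concentration required for 50% inhibition of growth. Definition used: TGI = concentration required for complete inhibition of growth.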
What was measured:
Test in all cases: inhibition of tumour cell growth, NCI panel, 48 h
[1] = test system: SN12C renal
[2] = test system: SK-MEL-28 melanoma
[3] = test system: UACC-62 melanoma
[4] = test system: UACC-257 melanoma
[5] = test system: MCF7 breast
[6] = test system: COLO 205 colon
[7] = test system: BT-549 breast
[8] = test system: SF-295 CNS
[9] = test system: SR leukemia
[10] = test system: HS 578T breast

| Structure (SMILES) | TGI [1] [µM] | TGI [2] [µM] | TGI [3] [µM] | TGI [4] [µM] | TGI [5] [µM] | TGI [6] [µM] | TGI [7] [µM] | TGI [8] [µM] | TGI [9] [µM] | TGI [10] [µM] | GI50 [2] [µM] | GI50 [5] [µM] | GI50 [6] [µM] | GI50 [9] [µM] | GI50 [10] [µM] |
| --- | --- | --- | --- | --- | --- | --- | --- | --- | --- | --- | --- | --- | --- | --- | --- |
| CC(C)Oc1cccc(N2C(Nc3ccccc3)=Nc3ccncc3S2(=O)=O)c1 | > 100 | 17.2 | > 100 | 50.4 | > 100 | 28.8 | 66.4 | 95.1 | > 100 | > 100 | – | – | – | – | – |
| COc1cccc(C2c3cc4c(cc3OC(Nc3ccccc3)C2C)OCO4)c1O (stereo not drawn) | 27.8 | 27 | 29 | > 57.8 | > 75 | > 35.6 | 38.8 | 18.7 | 7.25 | > 62.6 | – | – | – | – | – |
| COc1ccc(C(=O)/C=C/c2cc(-c3cc(OC)c(OC)c(OC)c3)n[nH]2)cc1 | – | 4.42 | – | – | 2.96 | 3.24 | – | – | 23.9 | > 100 | 2.12 | 1.15 | 1.73 | 0.347 | 3.6 |
| Cn1c(=O)sc2cc(C(=S)N3CCCCC3)ccc21 | > 100 | > 100 | > 100 | > 100 | > 100 | > 100 | > 100 | > 100 | > 100 | > 100 | – | – | – | – | – |
| CC(CNC(N)=O)NC(N)=O (stereo not drawn) | > 100 | > 100 | > 100 | > 100 | > 100 | > 100 | > 100 | > 100 | – | > 100 | – | – | – | – | – |
| NC(N)=NC1C(O)C(O)C(O)C(N=C(N)N)C1O (stereo not drawn) | > 100 | > 100 | > 100 | > 100 | > 100 | > 100 | > 100 | > 100 | > 100 | > 100 | – | – | – | – | – |
| COc1ccccc1NC(=O)CC(=O)NN | > 100 | > 100 | > 100 | > 100 | > 100 | > 100 | > 100 | > 100 | > 100 | > 100 | – | – | – | – | – |
| O=C(c1ccc(Cl)cc1)N1CCN=C1c1cc2ccccc2c2ccccc12 | 30.6 | 29.7 | 27.7 | 31.8 | 34.2 | 29.5 | 33.6 | 30.5 | 59 | 35.9 | – | – | – | – | – |
| S=C1SC(=Nc2ccccc2)C(=Nc2ccccc2)N1c1ccc2ccccc2c1 | > 100 | > 100 | > 100 | – | > 100 | > 100 | > 100 | > 100 | > 100 | > 100 | – | – | – | – | – |
| CCOC(=O)c1cc(Br)c(-c2onc(C)c2Br)[nH]1 | > 100 | > 100 | > 100 | > 100 | > 100 | > 100 | > 100 | > 100 | > 100 | > 100 | – | – | – | – | – |
| COc1nc(C#CC2CCCCC2)nc(OC)n1 | 11.1 | 32.8 | 4.38 | 23.5 | 14.9 | 53.5 | 14.6 | 18 | > 100 | 17.7 | – | – | – | – | – |
